The source of these data is patent US5554378A, “Pharmaceutical composition and its mucosal use” (Takeda Chemical Industries, Ltd., priority 1990, dated 1996).

Data set [1] can be described thus: Blood glucose after intranasal delivery of insulin to rats. Format: in vivo, Male SD rats. The settings on record: for Glucose (% relative to glucose level before administration): intranasal, insulin 10 U/kg, mean ± SE, n = 5 (SE in parentheses). Here is the method:
(§1) Male SD rats (5 per group) weighing about 220 g were fasted for 16 hours. Under pentobarbital anaesthesia, the animals were prepared for intranasal therapy according to the procedure described in International Journal of Pharmaceutics 7, 317 (1981). Then, using a micropipet, 0.1 ml/kg of an insulin solution was directly administered into the nasal cavity and the blood was serially sampled from the tail vein for determination of blood glucose and insulin concentrations.
(§2) As said insulin solution, a solution of 10U of porcine insulin (about 0.38 mg) and 0 mg-5 mg of LThB (corresponding to 5%) in 0.1 ml of isotonic buffer (pH 7.4) was used.
(§3) Insulin dose: 10 U/Kg, SD rats, 7W, .male., 220 g
*% relative to glucose level before administration (mean ± SE, n = 5)

Data set [2] is described as follows: Plasma insulin level (EIA, GLAZYME Kit) after intranasal delivery of insulin to rats. Format: in vivo, Male SD rats. The settings on record: for Insulin (plasma insulin level): insulin 10 U/kg. Here is the method:
as §1, §2, §3
Plasma insulin level: EIA (GLAZYME Kit, Wako)

For the substance LThB, the “Blood glucose level on addition of LThB, compared with the control (without LThB)” value in data set [1] (intranasal with insulin, vs control without LThB) is listed as “marked fall of blood glucose level”.

For “insulin, No addition: 10U of porcine insulin (about 0.38 mg) in 0.1 ml of isotonic buffer (pH 7.4), without LThB”, the “Glucose (% relative to glucose level before administration)” value is listed as 135.9 (10.5) % in data set [1] (0.5 hr); 141.7 (8.6) % in data set [1] (1.0 hr); 133.4 (11.2) % in data set [1] (1.5 hr); 127.3 (9.1) % in data set [1] (2.0 hr); 132.9 (11.4) % in data set [1] (3.0 hr); 136.3 (13.5) % in data set [1] (4.0 hr). For the same substance, the “Insulin (plasma insulin level)” value is given as 0.83 μU/ml in data set [2] (0.5 hr); 0.0 μU/ml in data set [2] (1.0 hr); 0.0 μU/ml in data set [2] (1.5 hr); 0.0 μU/ml in data set [2] (2.0 hr); 4.51 μU/ml in data set [2] (3.0 hr); 0.0 μU/ml in data set [2] (4.0 hr). The “Absorption of insulin from the nasal mucosa (blood insulin concentration)” value in data set [2] (with addition of LThB) is given as “effectively absorbed from the nasal mucosa”.
